The subject of one experiment is Human Microvascular Endothelial Cells (HMVEC). The experiment can be described thus: Endothelial cell migration assay (bFGF induced, modified Boyden chamber). The following applies: 600 nM test substance, 4 hours at 37 °C, percent inhibition of migration compared to a positive control. The experiment is classed as cell-based. As to the method: The endothelial cell migration assay was performed essentially as described by Polverini, P.J. et al., Methods Enzymol, 198: 440-450 (1991). Briefly, Human Microvascular Endothelial Cells (HMVEC) were starved overnight in DMEM (Dulbecco's Modified Eagle Medium) containing 0.1% bovine serum albumin (BSA). Cells were then harvested with trypsin and resuspended in DMEM with 0.1% BSA at a concentration of 1.5 x 10^6 cells/mL. Cells were added to the bottom of a 48-well modified Boyden chamber (Nucleopore Corporation, Cabin John, MD). The chamber was assembled and inverted, and cells were allowed to attach for 2 hours at 37 °C to polycarbonate chemotaxis membranes (5 µm pore size) that had been soaked in 0.1% gelatin overnight and dried. The chamber was then reinverted and basic fibroblast growth factor (bFGF) and test substances were added to the wells of the upper chamber (to a total volume of 50 µL); the apparatus was then incubated for 4 hours at 37 °C. Membranes were recovered, fixed and stained (DiffQuick, Fisher Scientific, Pittsburgh, PA) and the number of cells that had migrated to the upper chamber per 10 high power fields were counted. Background migration to DMEM + 0.1% BSA was subtracted and the data reported as the number of cells migrated per 10 high power fields (400X) or when results from multiple experiments were combined, as the percent inhibition of migration compared to a positive control.
Turning to `Nc1nc(N)nc(C23CC4CC(CC(C4)C2)C3)n1` [Example 52, 6-(tricyclo[3.3.1.1^3.7]decan-1-yl)-1,3,5-triazine-2,4-diamine], the “% inhibition at (nM)” value is recorded as 100 (600) %.

The experiment is the same for the next values; noted with them: Homo sapiens, 200 nM test substance, 4 hours at 37 °C, percent inhibition of migration compared to a positive control.
As to `Nc1nc(N)nc(C2CC3CCC2C3)n1` (stereo not drawn) [Example 65, 6-(bicyclo[2.2.1]hept-2-yl)-1,3,5-triazine-2,4-diamine], the inhibition (commonly the drop in the measured response relative to a control, in per cent) at 0.2 µM was found to be 32%.

The experiment is the same for the next values; noted with them: Homo sapiens, 500 nM test substance, 4 hours at 37 °C, percent inhibition of migration compared to a positive control.
Regarding `CNc1nc(NC)nc(-c2ccc(-c3ccccc3)cc2)n1` [Example 63, 6-[1,1'-biphenyl]-4-yl-N,N'-dimethyl-1,3,5-triazine-2,4-diamine], testing at 0.5 µM gave an inhibition of 79%.
On the same count and under the same terms, as for `Cc1ccc(-c2nc(N)nc(N)n2)cn1` [Example 68, 6-(6-methyl-3-pyridinyl)-1,3,5-triazine-2,4-diamine], the figure is 73%; as for `Nc1nc(N)nc(-c2ccc(Cl)nc2)n1` [Example 69, 6-(6-chloro-3-pyridinyl)-1,3,5-triazine-2,4-diamine], 39%.
Compound `Nc1nc(N)nc(C2CCN(C(=O)c3ccccc3)CC2)n1` [Example 74, 6-(1-benzoyl-4-piperidinyl)-1,3,5-triazine-2,4-diamine] registered an inhibition at 0.5 µM of 82%.
Same read-out and setting: as for `Nc1nc(N)nc(C2CCN(Cc3ccccc3)CC2)n1` [Example 75, 6-[1-(phenylmethyl)-4-piperidinyl]-1,3,5-triazine-2,4-diamine], the figure is 16%; as for `CC(=O)Nc1nc(NC(C)=O)nc(-c2ccc(S(=O)(=O)c3ccccc3)cc2)n1` [Example 76, N,N'-diacetyl-6-[4-(phenylsulfonyl)phenyl]-1,3,5-triazine-2,4-diamine], 33%; as for `CC(=O)Nc1nc(N)nc(-c2ccc(S(=O)(=O)c3ccccc3)cc2)n1` [Example 77, N-acetyl-6-[4-(phenylsulfonyl)phenyl]-1,3,5-triazine-2,4-diamine], 50%.

Staying with this experiment, now noted: Homo sapiens, 600 nM test substance, 4 hours at 37 °C, percent inhibition of migration compared to a positive control.
Compound `Nc1nc(N)nc(C2CN(C(c3ccccc3)c3ccccc3)C2)n1` [Example 1, 6-[1-(diphenylmethyl)-3-azetidinyl]-1,3,5-triazine-2,4-diamine] registered an inhibition at 0.6 µM of 20%.
On the same count and under the same terms, as for `Nc1nc(N)nc([C@H]2CC[C@H](c3ccccc3)CC2)n1` [Example 3, trans-6-(4-phenylcyclohexyl)-1,3,5-triazine-2,4-diamine], the figure is 100%; as for `Nc1nc(N)nc(-c2cccc(-n3cccc3)c2)n1` [Example 4, 6-[3-(1H-pyrrol-1-yl)phenyl]-1,3,5-triazine-2,4-diamine], 62%; as for `Nc1nc(N)nc(-c2ccccc2-c2ccccc2)n1` [Example 6, 6-[1,1'-biphenyl]-2-yl-1,3,5-triazine-2,4-diamine], 95%.
The same measure, in the same setting: with `Nc1nc(N)nc(-c2ccc(-c3ccc([N+](=O)[O-])cc3)cc2)n1` [Example 7, 6-(4'-nitro[1,1'-biphenyl]-4-yl)-1,3,5-triazine-2,4-diamine] the figure was 100%; with `CCCCC[C@H]1CC[C@H](c2ccc(-c3nc(N)nc(N)n3)cc2)CC1` [Example 8, trans-6-[4-(4-pentylcyclohexyl)phenyl]-1,3,5-triazine-2,4-diamine], 30%.
The same measure, in the same setting: as for `Nc1nc(N)nc(-c2ccc(Oc3ccccc3)cc2)n1` [Example 9, 6-(4-phenoxyphenyl)-1,3,5-triazine-2,4-diamine], the figure is 29%.
Compound `Nc1nc(N)nc(-c2ccc(NC(=O)NC3CCCCC3)cc2)n1` [Example 10, N-cyclohexyl-N'-[4-(4,6-diamino-1,3,5-triazin-2-yl)phenyl]urea] had an inhibition at 0.6 µM of 29%.
On the same count and under the same terms, as for `Nc1nc(N)nc(-c2ccc(NC(=O)Nc3ccccc3)cc2)n1` [Example 12, N-[4-(4,6-diamino-1,3,5-triazin-2-yl)phenyl]-N'-phenyl urea], the figure is 36%; as for `Nc1nc(N)nc(N2CCC3(CC2)OCCO3)n1` [Example 13, 6-(1,4-dioxa-8-azaspiro[4,5]dec-8-yl)-1,3,5-triazine-2,4-diamine], 53%; as for `Nc1nc(N)nc(-c2ccc3ccccc3n2)n1` [Example 47, 6-(2-quinolinyl)-1,3,5-triazine-2,4-diamine], 65%.
Still for that read-out and setting: as for `Nc1nc(N)nc(-c2cnc3ccccc3c2)n1` [Example 48, 6-(3-quinolinyl)-1,3,5-triazine-2,4-diamine], the figure is 55%.
`Nc1nc(N)nc(Cc2cc3ccccc3s2)n1` [Example 49, 6-(benzo[b]thien-2-ylmethyl)-1,3,5-triazine-2,4-diamine] yielded an inhibition at 0.6 µM of 14%.
Compound `CC1(C)C=Cc2cc(-c3nc(N)nc(N)n3)ccc2O1` [Example 50, 6-(2,2-dimethyl-2H-1-benzopyran-6-yl)-1,3,5-triazine-2,4-diamine] yielded an inhibition at 0.6 µM of 100%.
On the same count and under the same terms, as for `Nc1nc(N)nc(C2COc3ccccc3O2)n1` (stereo not drawn) [Example 51, 6-(2,3-dihydro-1,4-benzodioxin-2-yl)-1,3,5-triazine-2,4-diamine], the figure is 100%; as for `Nc1nc(N)nc(-c2nccc3ccccc23)n1` [Example 53, 6-(1-isoquinolinyl)-1,3,5-triazine-2,4-diamine], 85%; as for `Nc1nc(N)nc(-c2ccc3c(c2)OCCO3)n1` [Example 55, 6-(2,3-dihydro-1,4-benzodioxin-6-yl)-1,3,5-triazine-2,4-diamine], 84%.
Same read-out and setting: with `Nc1nc(N)nc(C23CCN(CC2)CC3)n1` [Example 56, 6-(1-azabicyclo[2.2.2]octan-4-yl)-1,3,5-triazine-2,4-diamine] the figure was 30%; with `Nc1nc(N)nc(-c2ccc(S(=O)(=O)c3ccccc3)cc2)n1` [Example 58, 6-[4-(phenylsulfonyl)phenyl]-1,3,5-triazine-2,4-diamine], 100%.
In turn, `Nc1nc(N)nc(-c2cnccn2)n1` [Example 60, 6-pyrazinyl-1,3,5-triazine-2,4-diamine] gave an inhibition at 0.6 µM of 100%.
Still for that read-out and setting: with `Nc1nc(N)nc(-c2cc(Cl)ccc2Cl)n1` [Irsogladine, reference compound] the figure was 53%.
